The target in one series is T1, hα4 and β1 integrins (Homo sapiens, UniProt P05556+P13612).
T1 construct: expressed in transfected cells; host or cells: CHO cells
Put plainly: In vitro inhibition of binding between CHO cells expressing hα4 and β1 integrins and Eu3+-hVCAM-1 D1D7-IgG. Particulars: for Ki: CHO cells expressing hα4 and β1 integrins, Eu3+-hVCAM-1 D1D7-IgG ligand, without HSA; for IC50: in the presence of 3% human serum albumin (HSA final concentration 3%). The method in brief: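 Bound europium-labelled VCAM-1 D1D7-IgG on α4β1-expressing CHO cells was measured by time-resolved fluorescence after washing at 4 °C. Ligand (2 nM working dilution) and test compound, with or without 3% final HSA, were co-incubated for 1 h at room temperature in Mn²⁺-containing HEPES buffer, pH 7.5. IC50 came from % binding inhibition; Ki was calculated from ligand concentration and Scatchard Kd.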

Series [1] in a line: Test for pharmacokinetics and oral absorbability in monkeys. Format: in vivo. Particulars: orally 0.5 mg/kg, single agent; for AUC (ng · h/ml): total area under the plasma concentration versus time curve: LC/MS/MS. The procedure:
The pharmacokinetic parameters in the case of orally administering (0.5 mg/kg, single agent) the substance under test to monkeys, were as follows.

Series [2] can be described thus: Solubility test in first and second liquid of the Japanese Pharmacopoeia.
Description: The solubilities of the substance under test in the first liquid (JP1, pH=1.2) of the Japanese Pharmacopoeia and the second liquid (JP2, pH=6.8) of the Japanese Pharmacopoeia, were evaluated.
Series [3] relates to eosinophile infiltration in mice actively sensitized with ascaris. The series can be described thus: Test for eosinophile infiltration in mice actively sensitized with ascaris, administered two times a day. Particulars: orally 5 mg/kg two times a day; for inhibition in vivo at 5 mg/kg: Mus musculus, po, eosinophile count in BALF 48 hours after sensitization vs ascaris-sensitized group, read-out: suppression rate (%); for Average total eosinophile count (×10^5) of (ascaris-sensitized + substance under test) group: BALF 48 hours after sensitization. The series is classed as in vivo. The procedure:
Test for eosinophile infiltration in mice actively sensitized with ascaris (antigen to pig roundworm):
It has been reported that infiltration of eosinophilic cells is induced by active sensitization with ascaris {Int. Arch. Immuno., 108, 11-18 (1995)}. An evaluation of the compounds under test was performed according to the evaluation method described herein. The substance under test was orally administered in an amount of 5 mg/kg, two times a day. The total cell count and the eosinophile count in BALF of 48 hours after sensitization were calculated, and the effects were determined by comparing with the group not administered with the substance under test.

[4] abbreviates: first liquid of the Japanese Pharmacopoeia (JP1), pH 1.2, simulated gastric fluid, First liquid of Japanese Pharmacopoeia (μg/mL), JP1, pH=1.2.
Where [5] appears, read: second liquid of the Japanese Pharmacopoeia (JP2), pH 6.8, aqueous buffer, Second liquid of Japanese Pharmacopoeia (μg/mL), JP2, pH=6.8.

Values after ≈ are worked out from the molar mass of the structure shown. Like-named read-outs stand apart in the source and are kept apart here.

T1 sequence (P13612 34-1032): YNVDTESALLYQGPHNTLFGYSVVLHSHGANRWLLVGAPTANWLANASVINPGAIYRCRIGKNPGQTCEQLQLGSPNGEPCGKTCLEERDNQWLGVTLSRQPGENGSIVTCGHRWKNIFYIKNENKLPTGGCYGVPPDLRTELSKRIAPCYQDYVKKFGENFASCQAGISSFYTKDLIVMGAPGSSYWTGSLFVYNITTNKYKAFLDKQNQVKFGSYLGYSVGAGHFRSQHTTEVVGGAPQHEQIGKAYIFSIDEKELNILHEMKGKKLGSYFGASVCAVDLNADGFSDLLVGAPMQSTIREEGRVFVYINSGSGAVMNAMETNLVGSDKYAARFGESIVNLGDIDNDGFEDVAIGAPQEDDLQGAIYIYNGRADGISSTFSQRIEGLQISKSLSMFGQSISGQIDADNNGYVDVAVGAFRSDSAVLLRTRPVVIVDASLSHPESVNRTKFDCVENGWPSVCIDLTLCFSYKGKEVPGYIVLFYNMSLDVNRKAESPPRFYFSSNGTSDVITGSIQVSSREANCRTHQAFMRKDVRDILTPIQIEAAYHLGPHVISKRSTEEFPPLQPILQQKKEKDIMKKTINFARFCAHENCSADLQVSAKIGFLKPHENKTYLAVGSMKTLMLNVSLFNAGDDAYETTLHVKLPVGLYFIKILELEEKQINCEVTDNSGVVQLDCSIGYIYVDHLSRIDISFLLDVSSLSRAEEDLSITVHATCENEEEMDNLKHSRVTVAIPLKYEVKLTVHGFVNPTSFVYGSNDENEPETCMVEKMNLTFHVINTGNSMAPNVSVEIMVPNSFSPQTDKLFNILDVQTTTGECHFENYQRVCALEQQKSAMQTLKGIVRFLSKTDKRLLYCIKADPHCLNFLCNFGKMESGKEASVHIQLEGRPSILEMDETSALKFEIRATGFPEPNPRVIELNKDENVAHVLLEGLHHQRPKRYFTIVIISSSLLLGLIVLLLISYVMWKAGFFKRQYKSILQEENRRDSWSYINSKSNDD
T1 sequence (P05556 21-798): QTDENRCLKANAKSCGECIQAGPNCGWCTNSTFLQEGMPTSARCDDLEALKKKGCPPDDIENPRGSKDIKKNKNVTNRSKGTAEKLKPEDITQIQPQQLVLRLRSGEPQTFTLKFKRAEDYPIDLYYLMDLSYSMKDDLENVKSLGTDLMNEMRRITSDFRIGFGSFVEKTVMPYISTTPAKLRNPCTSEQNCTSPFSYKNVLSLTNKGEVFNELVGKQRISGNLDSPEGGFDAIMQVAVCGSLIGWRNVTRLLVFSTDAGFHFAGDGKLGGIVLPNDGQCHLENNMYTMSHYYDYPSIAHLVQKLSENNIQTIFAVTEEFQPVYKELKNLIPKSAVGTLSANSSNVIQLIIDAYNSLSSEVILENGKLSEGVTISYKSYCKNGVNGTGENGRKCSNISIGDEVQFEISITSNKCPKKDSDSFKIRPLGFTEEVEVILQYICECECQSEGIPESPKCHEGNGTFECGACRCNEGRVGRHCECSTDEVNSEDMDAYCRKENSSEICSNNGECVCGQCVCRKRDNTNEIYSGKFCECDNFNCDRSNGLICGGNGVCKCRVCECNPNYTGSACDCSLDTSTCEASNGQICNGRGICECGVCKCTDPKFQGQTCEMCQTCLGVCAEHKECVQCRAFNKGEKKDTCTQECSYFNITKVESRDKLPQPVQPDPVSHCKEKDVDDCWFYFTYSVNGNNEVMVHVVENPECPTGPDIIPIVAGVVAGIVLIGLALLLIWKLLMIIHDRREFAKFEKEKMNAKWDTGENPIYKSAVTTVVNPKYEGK

In general, Ki refers to the dissociation constant of the complex between target and ligand, obtained from inhibition or displacement. By IC50 is commonly meant the concentration that gives 50% inhibition. For the compound `COC1CN([C@H]2C[C@@H](CO[C@H]3CC[C@H](C(=O)O)CC3)N(C(=O)Cc3cc(Cl)c(NC(=O)c4cn(C)c5ccccc45)cc3Cl)C2)C1` (relative stereo) [Example 2, Trans-4-[1-[[2,5-dichloro-4-[(1-methyl-1H-indol-3-ylcarbonyl)amino]phenyl]acetyl]-(4S)-(3-methoxyazetidin-1-yl)-(2S)-pyrrolidinylmethoxy]cyclohexanecarboxylic acid], on hα4 and β1 integrins, affinity was put at a Ki of 2.2 nM and the IC50 was found to be 17 nM. In series [1], the “Cltot (mL/min/kg): apparent plasma clearance” value (“Cltot (mL/min/kg)” for short) is recorded as 0.40 mL/min/kg and the “AUC (ng · h/ml): total area under the plasma concentration versus time curve” value amounted to 22185 ng·h/mL. In addition, the “Solubility, First liquid of Japanese Pharmacopoeia” value (“Solubility, First liquid” below) in series [2] (JP1, pH=1.2) was above 2000 µg/mL. The “Solubility, Second liquid of Japanese Pharmacopoeia” value (“Solubility, Second liquid” below) in series [2] (JP2, pH=6.8) is above 2000 µg/mL.
With `COC1CN([C@H]2C[C@@H](CO[C@H]3CC[C@H](C(=O)O)CC3)N(C(=O)Cc3cc(Cl)c(NC(=O)c4csc5ccccc45)cc3F)C2)C1` (relative stereo) [Example 3, Trans-4-[1-[[4-[(benzo[b]thiophen-3-ylcarbonyl)amino]-5-chloro-2-fluorophenyl]acetyl]-(4S)-(3-methoxyazetidin-1-yl)-(2S)-pyrrolidinylmethoxy]cyclohexanecarboxylic acid], at hα4 and β1 integrins, the Ki is 0.97 nM and the half-maximal inhibitory concentration (IC50) stood at 11 nM. Besides, in series [1], the “Cltot (mL/min/kg)” value is on record as 0.26 mL/min/kg and the “AUC (ng · h/ml): total area under the plasma concentration versus time curve” value was 32510 ng·h/mL. The “Solubility, First liquid” value in series [2] (JP1, pH=1.2) is 1848 µg/mL. The “Solubility, Second liquid” value in series [2] (JP2, pH=6.8) was 1989 µg/mL.
Regarding `COC1CN([C@H]2C[C@@H](CO[C@H]3CC[C@H](C(=O)O)CC3)N(C(=O)Cc3cc(Cl)c(NC(=O)c4csc5ccccc45)cc3Cl)C2)C1` (relative stereo) [Example 4, Trans-4-[1-[[4-[(benzo[b]thiophen-3-ylcarbonyl)amino]-2,5-dichlorophenyl]acetyl]-(4S)-(3-methoxyazetidin-1-yl)-(2S)-pyrrolidinylmethoxy]cyclohexanecarboxylic acid], at hα4 and β1 integrins, the Ki came out at 0.8 nM and the IC50 is 19 nM. Moreover, where the note is “pH 1.2”, the “Solubility, First liquid” value is above 2000 µg/mL. In addition, where the note is “pH 6.8”, the “Solubility, Second liquid” value is above 2000 µg/mL.
The term solubility denotes how much of the substance goes into solution per volume. A lower solubility goes with little dissolved substance. Turning to `CC1CN([C@H]2C[C@@H](CO[C@H]3CC[C@H](C(=O)O)CC3)N(C(=O)Cc3cc(Cl)c(NC(=O)c4cn(C)c5ccccc45)cc3Cl)C2)C1` [Example 10, Trans-4-[1-[[2,5-dichloro-4-[(1-methyl-1H-indol-3-ylcarbonyl)amino]phenyl]acetyl]-(4S)-(3-methylazetidin-1-yl)-(2S)-pyrrolidinylmethoxy]cyclohexanecarboxylic acid], at hα4 and β1 integrins, affinity was put at a Ki of 9.5 nM and the IC50 amounted to 37 nM. Besides, in series [3], the inhibition in vivo at 5 mg/kg worked out at 44% and the “Average total eosinophile count (×10^5) of (ascaris-sensitized + substance under test) group” value (“Average total eosinophile count” for short) is 1.73 ×10^5. Also, in series [1], the “Cltot (mL/min/kg)” value is given as 0.80 mL/min/kg and the “AUC (ng · h/ml): total area under the plasma concentration versus time curve” value amounted to 10799 ng·h/mL. For the same compound, in series [2] (setting [4]), the solubility is above 2000 µg/mL. Further, the solubility in series [2] (setting [5]) is above 2000 µg/mL.
Turning to `C[C@@H]1CN([C@H]2C[C@@H](CO[C@H]3CC[C@H](C(=O)O)CC3)N(C(=O)Cc3cc(Cl)c(NC(=O)c4coc5ccccc45)cc3Cl)C2)C[C@H](C)O1` [Example 83, Trans-4-[1-[[4-[(benzo[b]furan-3-ylcarbonyl)amino]-2,5-dichlorophenyl]acetyl]-(4S)-(cis-2,6-dimethylmorpholin-4-yl)-(2S)-pyrrolidinylmethoxy]cyclohexanecarboxylic acid], at hα4 and β1 integrins, the Ki is 5.2 nM and the 50% inhibitory concentration (IC50) turned out to be 42 nM. In series [1], the “Cltot (mL/min/kg)” value stood at 0.56 mL/min/kg and the “AUC (ng · h/ml): total area under the plasma concentration versus time curve” value is 15064 ng·h/mL.
`O=C(Nc1cc(F)c(CC(=O)N2C[C@@H](N3CCCCC3)C[C@H]2CO[C@H]2CC[C@H](C(=O)O)CC2)cc1Cl)c1csc2ccccc12` [Example 94, Trans-4-[1-[[4-[(benzo[b]thiophen-3-ylcarbonyl)amino]-5-chloro-2-fluorophenyl]acetyl]-(4S)-(piperidin-1-yl)-(2S)-pyrrolidinylmethoxy]cyclohexanecarboxylic acid]: at hα4 and β1 integrins, the affinity corresponds to a Ki of 0.93 nM and the IC50 was 2.9 nM. Besides, in series [3], the inhibition in vivo at 5 mg/kg was found to be 59% and the “Average total eosinophile count” value is 1.24 ×10^5.
In the case of `Cn1cc(C(=O)Nc2cc(F)c(CC(=O)N3C[C@@H](N4CCN(CCF)CC4)C[C@H]3CO[C@H]3CC[C@H](C(=O)O)CC3)cc2Cl)c2ccccc21` [Example 118, Trans-4-[1-[[5-chloro-2-fluoro-4-[(1-methyl-1H-indol-3-ylcarbonyl)amino]phenyl]acetyl]-(4S)-[4-(2-fluoroethyl)piperazin-1-yl]-(2S)-pyrrolidinylmethoxy]cyclohexanecarboxylic acid], on hα4 and β1 integrins, affinity was put at a Ki of 3.9 nM and the IC50 worked out at 13 nM. In addition, in series [3], the inhibition in vivo at 5 mg/kg worked out at 67% and the “Average total eosinophile count” value is 1.41 ×10^5. The same compound registered a solubility in series [2] (setting [4]) of 1000 µg/mL (≈ 1430 µM). In series [2] (setting [5]), this compound showed a solubility of 1000 µg/mL (≈ 1430 µM).
On to `Cn1cc(C(=O)Nc2cc(F)c(CC(=O)N3C[C@@H](N4CCN(CC(F)(F)F)CC4)C[C@H]3CO[C@H]3CC[C@H](C(=O)O)CC3)cc2Cl)c2ccccc21` [Example 124, Trans-4-[1-[[5-chloro-2-fluoro-4-[(1-methyl-1H-indol-3-ylcarbonyl)amino]phenyl]acetyl]-(4S)-[4-(2,2,2-trifluoroethyl)piperazin-1-yl]-(2S)-pyrrolidinylmethoxy]cyclohexanecarboxylic acid], for which, on hα4 and β1 integrins, the Ki came to 4.9 nM and the IC50 stood at 17 nM. In addition, in series [3], the inhibition in vivo at 5 mg/kg is 63% and the “Average total eosinophile count” value is 1.72 ×10^5.
In the case of `O=C(Nc1ccc(CC(=O)N2C[C@@H](N3CCN(CC(F)(F)F)CC3)C[C@H]2CO[C@H]2CC[C@H](C(=O)O)CC2)cc1Cl)c1nccc2ccccc12` [Example 127, Trans-4-[1-[[3-chloro-4-[(isoquinolin-1-ylcarbonyl)amino]phenyl]acetyl]-(4S)-[4-(2,2,2-trifluoroethyl)piperazin-1-yl]-(2S)-pyrrolidinylmethoxy]cyclohexanecarboxylic acid], at hα4 and β1 integrins, the Ki was 9.6 nM and the IC50 worked out at 34 nM. In series [3], the inhibition in vivo at 5 mg/kg is 63% and the “Average total eosinophile count” value was 1.40 ×10^5.
As for `Cn1cc(C(=O)Nc2cc(Cl)c(CC(=O)N3C[C@@H](N4CCN(C5CC5)CC4)C[C@H]3CO[C@H]3CC[C@H](C(=O)O)CC3)cc2Cl)c2ccccc21` [Example 139, Trans-4-[1-[[2,5-dichloro-4-[(1-methyl-1H-indol-3-ylcarbonyl)amino]phenyl]acetyl]-(4S)-(4-cyclopropylpiperazin-1-yl)-(2S)-pyrrolidinylmethoxy]cyclohexanecarboxylic acid], at hα4 and β1 integrins, the Ki worked out at 2.5 nM and the IC50 came out at 13 nM. Moreover, in series [1], the “Cltot (mL/min/kg)” value turned out to be 1.2 mL/min/kg and the “AUC (ng · h/ml): total area under the plasma concentration versus time curve” value amounted to 7329 ng·h/mL.
